Measurements from patent US12686668B2, “Leukotriene synthesis inhibitors” (Naegis Pharmaceuticals Inc., priority 2019, dated 2026).

Key:
[1] = tested on: LTC4 production in MC/9 cells; assay: MC/9 HPLC assay, inhibition of LTC4 production; format: cell-based; settings: Mus musculus; for inhibition at 1 µM: MC9, Table 2 column 3, no concentration in head (1 μM according to b732), read-out: % Inhibition LTC4; for inhibition at 3 µM: MC9, 3 μM, A23187 stimulated
Description: (§1) Cultured MC/9 cells (3×10^6 cells) in 1 mL HBSS were pre-incubated with a series of concentrations of compound solubilized in DMSO for 30 minutes. Production of leukotrienes were stimulated with the addition of 1 μM calcium ionophore (A23187), diluted from a 4 mM DMSO stock in HBSS, and incubated at room temperature for 20 minutes. The reaction was stopped with the addition of 500 μL of methanol containing 20 ng/mL prostaglandin B2 as an internal standard. Samples were collected and stored at −20° C. at least 2 hr or overnight before centrifuged at 13,000 rpm for 15 minutes and loaded onto C18 SEP-PAK columns (Canadian Lifesciences IS12000) for solid phase extraction. The leukotrienes were analyzed by HPLC using an ACE C18 column (4.5 mm×150 mm, 5 m) eluted with acetonitrile/methanol/water mixture with H3PO4, pH 3.5 (37:26:37) with a flow rate of 1.8 mL/min. The amount of LTB4 (Cayman Chemical, 20110) and LTC4 (Cayman Chemical, 20210) were calculated based on reference standards and the level of inhibition of LTB4 production induced by the test compounds was calculated relative to control samples. The results are provided in Table 2, where Compound No. refers to the compounds identified in Table 1.

[2] = tested on: LTB4 production in MC/9 cells; assay: MC/9 HPLC assay, inhibition of LTB4 production; format: cell-based; settings: Mus musculus, MC9, Table 2 column 4, no concentration in head (1 μM according to b732), read-out: % Inhibition LTB4
Description: as §1

[3] = target: T1, recombinant human leukotriene A4 hydrolase enzyme (Homo sapiens, UniProt P09960); assay: Amino-peptidase assay, alanine-4-nitroanalide; format: biochemical; settings: negative values = augmented peptidase activity, read-out: % Inhibition aminopeptidase-Alanine-4-nitroanalide activity of LTA4H (3 μM)
T1 construct: purchased Cayman Chemical 10007817
T1 sequence (P09960 1-611): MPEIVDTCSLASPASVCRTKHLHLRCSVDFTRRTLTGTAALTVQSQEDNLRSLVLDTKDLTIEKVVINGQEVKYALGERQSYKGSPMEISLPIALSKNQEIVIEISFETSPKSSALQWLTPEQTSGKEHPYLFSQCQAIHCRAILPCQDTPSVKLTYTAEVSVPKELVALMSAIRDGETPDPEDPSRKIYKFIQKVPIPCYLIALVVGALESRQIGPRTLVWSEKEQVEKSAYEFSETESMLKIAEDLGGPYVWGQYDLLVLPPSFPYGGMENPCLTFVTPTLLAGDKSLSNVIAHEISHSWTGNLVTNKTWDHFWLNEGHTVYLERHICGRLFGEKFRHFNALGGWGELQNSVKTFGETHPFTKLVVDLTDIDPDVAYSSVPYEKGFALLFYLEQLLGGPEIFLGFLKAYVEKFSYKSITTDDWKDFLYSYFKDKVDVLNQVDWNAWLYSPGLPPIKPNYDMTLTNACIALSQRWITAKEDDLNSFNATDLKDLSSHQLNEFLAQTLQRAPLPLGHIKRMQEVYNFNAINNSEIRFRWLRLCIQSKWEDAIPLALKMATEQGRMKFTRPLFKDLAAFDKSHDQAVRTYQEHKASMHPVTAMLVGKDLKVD
Description: A series of compound concentrations were pre-incubated in the absence of light with 0.5 μg of recombinant human leukotriene A4 hydrolase enzyme (Cayman Chemical 10007817) in 50 μL assay buffer (50 mM Tris-HCl, 100 mM KCl). The reaction was stimulated by adding 50 μL 6 mM alanine-4-nitroanilide (Sigma Aldrich A9325) in assay buffer. The amount of amino-peptidase activity was measured by determining the change in absorbance at 405 nm due to 4-nitroanaline production and comparing the rate of change to a reference standard (Sigma Aldrich 185310). Amino-peptidase activity was compared to control samples and the level of inhibition was calculated. Compounds that augment peptidase activity are represented by negative values.

[4] = tested on: LTB4 production in porcine or human whole blood; assay: Whole blood HPLC assay, inhibition of LTB4 production; format: cell-based; settings: 5 point curve, porcine or human whole blood (not specified)
Description: Porcine or human whole blood (1 mL) was pre-incubated with a series of concentrations of compound solubilized in DMSO for 30 minutes. Production of leukotrienes were stimulated with the addition of 20 μM calcium ionophore (A23187), diluted from a 4 mM DMSO stock in HBSS, and incubated at room temperature for 20 minutes. In porcine blood 20 μM arachidonic acid was added in addition to the calcium ionophore. The blood was centrifuged at 2,000 rpm for 15 minutes, and the plasma fraction removed for further processing. Plasma samples were diluted with 500 μL acidified water (HCl pH 3.0) and loaded onto C18 SEP-PAK columns (Canadian Lifesciences IS12000) for solid phase extraction. The leukotrienes were analyzed by HPLC using an ACE C18 column (4.5 mm×150 mm, 5 m) eluted with acetonitrile/methanol/water mixture with H3PO4, pH 3.5 (37:26:37) with a flow rate of 1.8 mL/min. The amount of LTB4 (Cayman Chemical, 20110) was calculated based on reference standards and the level of inhibition of LTB4 production induced by the test compounds was calculated relative to control samples. The results provided in Table 3 are IC50 values calculated based on a 5 point curve, where Compound No. refers to the compounds identified in Table 1.

CCC(=O)CCc1ccc(Oc2nc3ccccc3o2)c(OC)c1 [Compound 102, 1-[4-(1,3-benzoxazol-2-yloxy)-3-methoxyphenyl]pentan-3-one]
inhibition at 1 µM [1]: 10 to 30% | inhibition at 1 µM [2]: > 90% | inhibition at 3 µM [3]: 0 to 50%

CCC(O)(CCc1ccc(Oc2nc3ccccc3n2C)c(OC)c1)C(F)(F)F (centres unmarked) [Compound 105, 1-[4-(1-methyl-1H-benzimidazol-2-yloxy)-3-methoxyphenyl]-3-(trifluoromethyl)pentan-3-ol]
inhibition at 3 µM [1]: 70 to 90% | inhibition at 1 µM [1]: 30 to 50% | inhibition at 3 µM [3]: 75%

CCC(O)(CCc1ccc(Oc2nc3ccc(OC)cc3s2)c(OC)c1)C(F)(F)F (centres unmarked) [Compound 109, 1-{4-[(6-methoxy-1,3-benzothiazol-2-yl)oxy]-3-methoxyphenyl}-3-(trifluoromethyl)pentan-3-ol]
inhibition at 1 µM [1]: 50 to 70% | inhibition at 1 µM [2]: 70 to 90% | inhibition at 3 µM [3]: 0 to 50%

CCOc1cc(CCC(O)(CC)C(F)(F)F)ccc1Oc1nc2ccccc2s1 (centres unmarked) [Compound 121, 1-[4-(1,3-benzothiazol-2-yloxy)-3-ethoxyphenyl]-3-(trifluoromethyl)pentan-3-ol]
inhibition at 1 µM [1]: 50 to 70% | inhibition at 1 µM [2]: 50 to 70% | inhibition at 3 µM [3]: 0 to 50%

COc1cc(CCC(C)(O)c2ccccc2)ccc1Oc1nc2ccccc2s1 (centres unmarked) [Compound 123, 4-[4-(1,3-benzothiazol-2-yloxy)-3-methoxyphenyl]-2-(phenyl)butan-2-ol]
inhibition at 1 µM [1]: 10 to 30% | inhibition at 1 µM [2]: 50 to 70% | inhibition at 3 µM [3]: 25 to 50%

CCC(C)(O)CCc1ccc(Oc2nc3ccccc3o2)c(OC)c1 (centres unmarked) [Compound 127, 1-[4-(1,3-benzoxazol-2-yloxy)-3-methoxyphenyl]-3-methylpentan-3-ol]
inhibition at 1 µM [1]: < 10% | inhibition at 1 µM [2]: < 10%

COc1cc(CCC(C)(O)c2ccccc2)ccc1Oc1nc2ccccc2o1 (centres unmarked) [Compound 128, 4-[4-(1,3-benzoxazol-2-yloxy)-3-methoxyphenyl]-2-phenylbutan-2-ol]
inhibition at 3 µM [1]: < 10% | inhibition at 1 µM [1]: < 10% | inhibition at 1 µM [2]: < 10% | inhibition at 3 µM [3]: < 25%

CCOc1cc(CCC(O)(c2ccccc2)C(F)(F)F)ccc1Oc1nc2ccccc2s1 (centres unmarked) [Compound 130, 4-[3-ethoxy-4-(1,3-benzothiazol-2-yloxy)phenyl]-1,1,1-trifluoro-2-phenylbutan-2-ol]
inhibition at 1 µM [1]: < 10% | inhibition at 1 µM [2]: 10 to 30%

COc1cc(CCC(O)(c2ccccc2)C(F)(F)F)ccc1Oc1nc2ccccc2s1 (centres unmarked) [Compound 133, 3-[4-(1,3-benzothiazol-2-yloxy)-3-methoxyphenyl]-1-(trifluoromethyl)-1-phenylpropan-1-ol]
inhibition at 1 µM [1]: < 10% | inhibition at 1 µM [2]: 30 to 50%

COc1cc(CCC(c2ccccc2)N2CCCC2)ccc1Oc1nc2ccccc2s1 (centres unmarked) [Compound 134, 2-{2-methoxyl-4-[3-phenyl-3-(pyrrolidin-1-yl)propyl]phenoxy}-1,3-benzothiazole]
inhibition at 1 µM [1]: 10 to 30% | inhibition at 1 µM [2]: 10 to 30%

CCC(N)CCc1ccc(Oc2nc3ccccc3s2)c(OC)c1 (centres unmarked) [Compound 135, 1-[4-(1,3-benzothiazol-2-yloxy)-3-methoxyphenyl]pentan-3-amine]
inhibition at 1 µM [1]: 10 to 30% | inhibition at 1 µM [2]: 30 to 50%

COc1cc(C(O)C(F)(F)F)ccc1Oc1nc2c(SC)cccc2s1 (centres unmarked) [Compound 139, 2,2,2-trifluoro-1-(3-methoxy-4-{[4-(methylsulfanyl)-1,3-benzothiazol-2-yl]oxy}phenyl)ethanol]
inhibition at 3 µM [1]: > 90% | IC50 [4]: 1 to 10 µM

CC(O)(CCc1ccc(Oc2nc3ccccc3s2)cc1)C(F)(F)F (centres unmarked) [Compound 140, 4-[4-(1,3-benzothiazol-2-yloxy)phenyl]-1,1,1-trifluoro-2-methylbutan-2-ol]
inhibition at 1 µM [1]: < 10% | inhibition at 1 µM [2]: < 10%

CCC(C)(O)CCc1ccc(Oc2nc3ccccc3s2)cc1 (centres unmarked) [Compound 143, 1-[4-(1,3-benzothiazol-2-yloxy)phenyl]-3-methylpentan-3-ol]
inhibition at 1 µM [1]: 10 to 30% | inhibition at 1 µM [2]: > 90%

CC(O)(CCc1ccc(Oc2nc3ccccc3s2)cc1)c1ccccc1 (centres unmarked) [Compound 144, 4-[4-(1,3-benzothiazol-2-yloxy)phenyl]-2-phenylbutan-2-ol]
inhibition at 1 µM [1]: 10 to 30% | inhibition at 1 µM [2]: > 90%

CCC(=O)CCc1ccc(Oc2nc3ccccc3s2)cc1 [Compound 148, 1-[4-(1,3-benzothiazol-2-yloxy)phenyl]pentan-3-one]
inhibition at 3 µM [3]: < 25%

CCC(O)(CCc1ccc(Oc2nc3ccccc3s2)c(Cl)c1)C(F)(F)F (centres unmarked) [Compound 151, 1-[4-(1,3-benzothiazol-2-yloxy)-3-chlorophenyl]-3-(trifluoromethyl)pentan-3-ol]
inhibition at 1 µM [1]: 10 to 30% | inhibition at 1 µM [2]: 10 to 30%

CCC(O)(CCc1ccc(Oc2nc3ccccc3s2)c(F)c1)C(F)(F)F (centres unmarked) [Compound 154, 1-[4-(1,3-benzothiazol-2-yloxy)-3-fluorophenyl]-3-(trifluoromethyl)pentan-3-ol]
inhibition at 3 µM [1]: < 10% | inhibition at 1 µM [1]: 30 to 50% | inhibition at 1 µM [2]: 50 to 70% | inhibition at 3 µM [3]: > 75%

O=C(O)C1CCCN1Cc1ccc(Oc2nc3ccccc3s2)cc1 (centres unmarked) [Compound 165, 1-[4-(1,3-benzothiazol-2-yloxy)benzyl]pyrrolidine-2-carboxylic acid]
inhibition at 3 µM [1]: < 10% | inhibition at 3 µM [3]: 50 to 75%

COc1cc(C(C)(O)C(F)(F)F)ccc1Oc1nc2ccccc2s1 (centres unmarked) [Compound 173, 2-[4-(1,3-benzothiazol-2-yloxy)-3-methoxyphenyl]-1,1,1-trifluoropropan-2-ol]
inhibition at 3 µM [1]: 30 to 50% | inhibition at 3 µM [3]: 0 to 50%

CC(O)(CCc1ccc(Oc2nc3ccccc3s2)c(Cl)c1)C(F)(F)F (centres unmarked) [Compound 175, 4-[4-(1,3-benzothiazol-2-yloxy)-3-chlorophenyl]-1,1,1-trifluoro-2-methylbutan-2-ol]
inhibition at 3 µM [3]: 50 to 75%

CSc1cccc2sc(Oc3ccc(C(C)O)cc3)nc12 (centres unmarked) [Compound 176, 1-(4-{[4-(methylsulfanyl)-1,3-benzothiazol-2-yl]oxy}phenyl)ethanol]
inhibition at 3 µM [1]: < 10% | inhibition at 3 µM [3]: < 25%

CC(C)(O)c1ccc(Oc2nc3ccccc3s2)cc1 [Compound 177, 2-[4-(1,3-benzothiazol-2-yloxy)phenyl]propan-2-ol]
inhibition at 3 µM [3]: > 75%

CC(O)c1ccc(Oc2nc3c(F)cc(F)cc3s2)cc1 (centres unmarked) [Compound 180, 1-{4-[(4,6-difluoro-1,3-benzothiazol-2-yl)oxy]phenyl}ethanol]
inhibition at 3 µM [1]: < 10% | inhibition at 3 µM [3]: 50 to 75%

COc1cc(Oc2nc3ccccc3s2)ccc1C(O)C(F)(F)F (centres unmarked) [Compound 182, 1-{4-[(1,3-benzothiazol-2-yl}oxy]-2-methoxyphenyl}-2,2,2-trifluoroethan-1-ol]
inhibition at 3 µM [1]: 10 to 30% | inhibition at 3 µM [3]: < 25%
